Consider 7 compounds from PubChem BioAssay (NCI).

The structures appear in SMILES notation.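 Results reflect a 48-hour exposure of cells in 96-well plates to compound at five concentrations. GI50 marks 50% less growth. TGI: concentration producing complete growth inhibition.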

Some test systems named below: PC-3 prostate; T-47D breast; UACC-257 melanoma; NCI-H460 lung; A498 renal; SK-MEL-2 melanoma; TK-10 renal; SR leukemia; MDA-MB-231 breast; OVCAR-4 ovarian.
What all share (assay): inhibition of tumour cell growth, NCI panel, 48 h

In the case of `Cn1ccnc1C(=O)/C=C/c1ccc(CC(=O)Nc2ccc(C(F)(F)F)cc2)cc1`, the GI50 in the test with PC-3 prostate was 1.01 µM; in the test with T-47D breast, 5.95 µM; in the test with UACC-257 melanoma it was 8.03 µM; in the test with NCI-H460 lung, 2.99 µM; with A498 renal, 4.17 µM; in the test on SK-MEL-2 melanoma it was 4.95 µM. Besides, the GI50 with TK-10 renal is 5 µM; with SR leukemia it was 0.718 µM; in the test on MDA-MB-231 breast, 4.02 µM; in the test with OVCAR-4 ovarian, 3.1 µM. In addition, the TGI with PC-3 prostate is 4.6 µM; in the test with T-47D breast, over 16.7 µM; in the test on UACC-257 melanoma, over 16.7 µM; with NCI-H460 lung, 9.42 µM; in the test with A498 renal, 11.8 µM; in the test with SK-MEL-2 melanoma, 11.3 µM. The TGI in the test with TK-10 renal was 15.3 µM; with SR leukemia, 9.94 µM; with MDA-MB-231 breast, 15.2 µM; in the test with OVCAR-4 ovarian, over 16.7 µM.

Regarding `Nc1n[nH]c2cccc(C#Cc3cccc(C(=O)Nc4cc(CN5CCOCC5)cc(C(F)(F)F)c4)c3)c12`, the GI50 in the test with PC-3 prostate was 4.39 µM; with T-47D breast it was 2.23 µM; in the test on UACC-257 melanoma it was 4.63 µM; in the test with NCI-H460 lung, 4.11 µM; with A498 renal, 1.75 µM; with SK-MEL-2 melanoma it was 2.62 µM. The GI50 in the test with TK-10 renal is 11.4 µM; in the test on SR leukemia, 2.69 µM; with MDA-MB-231 breast it was 1.65 µM; with OVCAR-4 ovarian it was 5.8 µM. Besides, the TGI in the test on PC-3 prostate turned out to be 19 µM; in the test on T-47D breast, 10.2 µM; in the test with UACC-257 melanoma, 18.1 µM; with NCI-H460 lung, 16.9 µM; in the test on A498 renal it was 9.53 µM; in the test with SK-MEL-2 melanoma, 10.6 µM. Moreover, the TGI in the test on TK-10 renal amounted to 27.5 µM; with SR leukemia it was 22.9 µM; in the test with MDA-MB-231 breast it was 6.8 µM; in the test with OVCAR-4 ovarian it was 23.1 µM.

In the case of `COc1cc2c3c(n(C)c(=O)c2cc1OC)-c1cc2c(cc1/C3=C\C(N)CN)OCO2` (configuration not stated), the GI50 with PC-3 prostate is 5.27 µM; in the test on T-47D breast, 1.94 µM; in the test with UACC-257 melanoma, 6.38 µM; in the test with NCI-H460 lung, 1.5 µM; in the test on A498 renal, 1.37 µM; with SK-MEL-2 melanoma, 4.71 µM. Moreover, the GI50 was 1.45 µM in the test with TK-10 renal, 0.219 µM with SR leukemia, 4.15 µM with MDA-MB-231 breast and 5.44 µM in the test on OVCAR-4 ovarian. The TGI in the test with PC-3 prostate was 20.5 µM; in the test with T-47D breast, 10.3 µM; with UACC-257 melanoma it was 41.4 µM; in the test with NCI-H460 lung, 7.58 µM; in the test with A498 renal it was 9.77 µM; in the test with SK-MEL-2 melanoma, over 22.8 µM. Further, the TGI was 26.5 µM in the test on TK-10 renal, over 53.3 µM with MDA-MB-231 breast and over 100 µM in the test on OVCAR-4 ovarian.

Take `O=C(c1cccnc1)c1cc(-c2ccccn2)c(=O)n2ccccc12`: the GI50 in the test on PC-3 prostate, with T-47D breast, in the test with UACC-257 melanoma, in the test on NCI-H460 lung, in the test on A498 renal and with SK-MEL-2 melanoma was over 100 µM each time. Also, the GI50 with TK-10 renal, with SR leukemia, in the test on MDA-MB-231 breast and in the test with OVCAR-4 ovarian was over 100 µM in each case. Further, the TGI with PC-3 prostate, in the test on T-47D breast, in the test on UACC-257 melanoma, in the test with NCI-H460 lung, in the test with A498 renal and in the test on SK-MEL-2 melanoma was over 100 µM throughout. In addition, the TGI in the test with TK-10 renal, with SR leukemia, in the test on MDA-MB-231 breast and with OVCAR-4 ovarian was over 100 µM in each case.

As to `CC(C)N1C(NNC(=O)c2cnccn2)=NS(=O)(=O)c2ccccc21`, the GI50 in the test with PC-3 prostate, in the test on T-47D breast, with UACC-257 melanoma, with NCI-H460 lung, with A498 renal and in the test on SK-MEL-2 melanoma was over 100 µM throughout. Further, the GI50 in the test with TK-10 renal, with SR leukemia, in the test with MDA-MB-231 breast and in the test with OVCAR-4 ovarian was over 100 µM in each case. Further, the TGI in the test with PC-3 prostate, with T-47D breast, with UACC-257 melanoma, with NCI-H460 lung, with A498 renal and in the test with SK-MEL-2 melanoma was over 100 µM in each case. For the same compound, the TGI with TK-10 renal, in the test with SR leukemia, in the test on MDA-MB-231 breast and with OVCAR-4 ovarian was over 100 µM throughout.

Consider `O=C(COc1cccc(/C=C2\COc3ccc(Cl)cc3C2=O)c1)c1ccc(Cl)cc1`, for which the GI50 with PC-3 prostate was 12.4 µM; in the test on T-47D breast it was 11.4 µM; with UACC-257 melanoma it was 18.5 µM; in the test on NCI-H460 lung it was 15.8 µM; in the test with A498 renal, 13.8 µM; in the test on SK-MEL-2 melanoma, 7.4 µM. Moreover, the GI50 in the test on TK-10 renal is 15.1 µM; in the test on SR leukemia, 1.71 µM; in the test with MDA-MB-231 breast, 4.08 µM; in the test on OVCAR-4 ovarian, 14.9 µM. In addition, the TGI with PC-3 prostate was determined as 28.9 µM; with T-47D breast, 26.1 µM; with UACC-257 melanoma, 33.4 µM; in the test on NCI-H460 lung, 30.1 µM; in the test on A498 renal, 27.1 µM; with SK-MEL-2 melanoma, 21.1 µM. For the same compound, the TGI in the test with TK-10 renal is 28.7 µM; with SR leukemia, 5.11 µM; in the test on MDA-MB-231 breast, 21.1 µM; in the test with OVCAR-4 ovarian it was 31.5 µM.

For the compound `CCCCCCCOc1c(OC)cc(C2CC(=O)Nc3c2c(C)nn3-c2nc3ccccc3[nH]2)cc1OC` (configuration not stated), the GI50 was 3.67 µM in the test with PC-3 prostate; 3.95 µM in the test on T-47D breast; 4.03 µM in the test on UACC-257 melanoma; 1.87 µM in the test with NCI-H460 lung; 0.881 µM in the test on A498 renal; 3.28 µM in the test on SK-MEL-2 melanoma. Also, the values for the GI50 in the test with TK-10 renal, in the test on SR leukemia and in the test with MDA-MB-231 breast were 3.12 µM, 3.08 µM and 1.98 µM, respectively. Also, the TGI in the test with PC-3 prostate was over 100 µM; with T-47D breast it was over 100 µM; in the test on UACC-257 melanoma it was over 100 µM; with NCI-H460 lung, 3.82 µM; in the test on A498 renal, 3.9 µM; in the test with SK-MEL-2 melanoma it was 12.6 µM. For the same compound, the figures for the TGI with TK-10 renal, with SR leukemia and in the test on MDA-MB-231 breast were over 100 µM, over 100 µM and 4.12 µM, respectively.
